pIC50: −log10 of the molar value.
Experiments:
[1] = system: pCHK2 (Cellular mechanistic ATM, HCT-116); experiment: Cellular pCHK2 assay (bleomycin-induced phospho-Thr68 CHK2); format: cell-based, human
Description: For the identification of substances which inhibit the phosphorylation of the protein kinase CHK2 (checkpoint kinase 2) at the amino acid threonine 68, an immunofluorescence-based “high content” analysis assay was used in HCT116 cells. In vitro cell-based immunofluorescence assay for the identification of inhibitors of bleomycin-induced phosphorylation of CHK2 (phospho-Thr68) in the human colon carcinoma cell line HCT116: HCT116 cells are sown out in a defined cell density in 384-well plates in culture medium (DMEM high glucose, 2 mM GlutaMax, 1 mM Na pyruvate, 10% FCS) and incubated overnight at 37° C. and 10% of CO2. On the following day, the test substances are added in a defined concentration range (1 nM to 30 μM) in combination with 10 μM bleomycin, where the concentration of the solvent DMSO is kept constant at 0.5%. After incubation for four hours at 37° C. and 10% of CO2, the cells are fixed (5 min, 4% formaldehyde in PBS), permeabilised (10 min, 0.2% Triton X-100 in PBS) and, after blocking of nonspecific binding sites (10% goat serum, 1% BSA in PBS), incubated overnight at 4° C. with a specific anti-pCHK2 antibody (cell signaling #2661). pCHK2 (Thr68) is determined using an Alexa488-labelled secondary anti-rabbit IgG antibody. Parallel staining of DNA with propidium iodide enables determination of the cell count. The pCHK2 signal is detected using a high-content imager (Molecular Devices IMX Ultra) and automatic image analysis using the MetaXpress software belonging to the instrument. The number of cell nuclei which have a pCHK2 signal above a defined background is determined.

[2] = system: pCHK1 (Cellular mechanistic ATR, HCT-116); experiment: pCHK1 cellular assay; format: cell-based, human
DNA-PK protein complex = DNA-PK protein complex (Homo sapiens, UniProt P78527); experiment: DNA-PK assay (HTRF); format: biochemical
Description: The kinase assay was performed as HTRF® based 384-well assay. In a first step DNA-PK protein complex was incubated with or without test compound for 15 min at 22° C. After addition of the STK-substrate 1-biotin (Cisbio), Mg-ATP, DNA and staurosporine the reaction mixture was incubated for 60-80 min (depending on activity of DNA-PK protein complex) at 22° C. An Echo 555 (Labcyte) was used for dispensing of compound solutions. The assay buffer consisted of 25 mM HEPES PH 7.4, 11 mM MgCl2, 80 mM KCl, 0.45 mM EDTA, and 0.5 mM EGTA, and contained 1 mM dithiothreitol (DTT), 0.17% BSA, and 0.01% Tween® 20. The pharmacologically relevant volume was 5 μl. The final concentrations in the assay during incubation of the reaction mixture were 50-100 ng/well DNA-PK protein complex (depending on activity of DNA-PK protein complex), 1 μM STK-substrate 1-biotin, 10 μM Mg-ATP, 80 ng/well DNA from calf thymus, and 1 μM staurosporine. The enzymatic reaction was stopped by addition of EDTA. The generation of phosphorylated STK-substrate 1-biotin as result of the DNA-PK mediated reaction was detected via a specific anti-phospho STK-antibody (Cisbio) labeled with Europium (Eu) as donor and streptavidin labeled with XL665 (Cisbio) as acceptor allowing FRET. For this purpose, 4 μl of antibody- and streptavidin-containing stop solution (12.5 mM HEPES pH 8.0, 125 mM EDTA, 30 mM sodium chloride, 300 mM potassium fluoride, 0.006% Tween-20, 0.005% Brij® 35, 0.179 nM anti-phospho-STK antibody, 160 nM Streptavidin-XL665) were added to the reaction mixture. Following signal development for 1 h the plates were analyzed on a Rubystar or Pherastar microplate reader (BMG Labtech). The amount of phosphorylated substrate was directly proportional to the ratio of fluorescence units (excitation wavelength 337 nm) at the emission wavelengths 665 nm (Phosphopeptide-sensitive wavelength/emission of XL665) to the units at 620 nm (reference wavelength Europium). IC50-values were calculated using Genedata Screener® software. […]

[3] = biological target: T1, human phosphodiesterase-4A1A (Homo sapiens, UniProt P27815); experiment: PDE4A1A assay (Cerep); format: biochemical
T1 construct: purchased Cerep 4074; host or cells: Sf9 cells
T1 sequence (P27815 1-647 isoform P27815-4): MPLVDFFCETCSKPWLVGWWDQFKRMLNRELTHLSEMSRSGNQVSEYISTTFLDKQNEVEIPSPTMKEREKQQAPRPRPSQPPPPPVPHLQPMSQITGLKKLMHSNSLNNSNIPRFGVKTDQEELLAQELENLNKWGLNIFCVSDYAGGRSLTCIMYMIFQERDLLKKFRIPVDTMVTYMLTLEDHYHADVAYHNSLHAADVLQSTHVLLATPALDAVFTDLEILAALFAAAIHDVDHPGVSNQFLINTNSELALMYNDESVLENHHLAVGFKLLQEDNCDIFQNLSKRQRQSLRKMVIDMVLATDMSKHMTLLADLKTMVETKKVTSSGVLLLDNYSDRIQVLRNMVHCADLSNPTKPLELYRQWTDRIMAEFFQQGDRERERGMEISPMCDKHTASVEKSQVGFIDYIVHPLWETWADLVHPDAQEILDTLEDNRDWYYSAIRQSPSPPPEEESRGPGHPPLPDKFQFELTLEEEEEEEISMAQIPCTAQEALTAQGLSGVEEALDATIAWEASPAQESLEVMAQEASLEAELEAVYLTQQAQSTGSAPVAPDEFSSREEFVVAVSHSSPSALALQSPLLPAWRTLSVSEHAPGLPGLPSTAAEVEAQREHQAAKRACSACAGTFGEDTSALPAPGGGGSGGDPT
Description: A commercially available assay of Cerep was used (Catalog ref. 4074; SOP no 1C1056), which is designed to evaluate the effects of compounds on the activity of the human phosphodiesterase-4A1A quantified by measuring the formation of 5′AMP from cAMP using a human recombinant enzyme expressed in Sf9 cells.
The test compound, reference compound or water (control) are added to a buffer containing 40 mM Tris/HCl (pH 7.4) and 8 mM MgCl2, 450 nM cAMP and 0.25 μCi [^3H]cAMP.
Thereafter, the reaction is initiated by addition of the enzyme (about 10 U) and the mixture is incubated for 20 min at 22° C.
For basal control measurements, the enzyme is omitted from the reaction mixture.
Following incubation SPA beads are added.
After 30 min at 22° C. under shaking, the amount of [^3H]5′AMP is quantified with a scintillation counter (Topcount, Packard).
The results are expressed as a percent inhibition of the control enzyme activity.
The standard inhibitory reference compound is Ro 20-1724, which is tested in each experiment at several concentrations to obtain an inhibition curve from which its IC50 value is calculated.

[4] = Homo sapiens, HCT-116, HCT-116 as printed in the table

SMILES	pIC50 ([1]; HCT-116, 10 μM bleomycin)	pIC50 [2, 4]	pIC50 (DNA-PK protein complex)	pIC50 [3]	pIC50 ([2]; HCT-116)	pIC50 ([1]; Homo sapiens, HCT-116, HCT-116, 10 μM bleomycin)
COc1cc2ncc3c(c2cc1-c1cn(C)nc1C)n(-c1c(F)cncc1OC)c(=O)n3C (single isomer, unassigned) [Compound 1, 8-(1,3-Dimethyl-1H-pyrazol-4-yl)-1-(Sa)-(3-fluoro-5-methoxy-pyridin-4-yl)-7-methoxy-3-methyl-1,3-dihydro-imidazo[4,5-c]quinolin-2-one]	7.89	≤ 4.62	6.22	5.28	–	–
COc1cc2ncc3c(c2cc1-c1cn(C)nc1C)n(-c1c(F)cncc1OC)c(=O)n3C (single isomer, unassigned) [Compound 2, 8-(1,3-Dimethyl-1H-pyrazol-4-yl)-1-(Ra)-(3-fluoro-5-methoxy-pyridin-4-yl)-7-methoxy-3-methyl-1,3-dihydro-imidazo[4,5-c]quinolin-2-one]	7.12	–	5.89	6.03	< 4.52	–
COc1cc2ncc3c(c2cc1-c1cn(C)nc1C)n(-c1c(F)cncc1OC)c(=O)n3C [Compound Y, 8-(1,3-dimethyl-1H-pyrazol-4-yl)-1-(3-fluoro-5-methoxypyridin-4-yl)-7-methoxy-3-methyl-1,3-dihydroimidazo[4,5-c]quinolin-2-one, reference compound]	–	5.10	6.01	5.96	–	7.07

Source: US20250188080A1, “IMIDAZOLONYLQUINOLINE COMPOUNDS AND THERAPEUTIC USES THEREOF” (Merck Patent GmbH, priority 2019, published 2025)
